Reference: patent US9220787B2, “Vitamin E conjugates, and their uses as antioxidants and prodrug delivery vehicles” (Board of Supervisors of Louisiana State University And …, priority 2010, dated 2015)

System: α-tocopherol transfer protein (α-TTP)
Assay: not given
Details: relative affinity, RRR-α-tocopherol essentially 100%; cited from earlier work

For Cc1c(C)c2c(c(C)c1O)CC[C@@](C)(CCC[C@H](C)CCC[C@H](C)CCCC(C)C)O2 [RRR-α-tocopherol], the “affinity of Alpha-TTP” value is given as roughly 100%.

First: Cc1c(C)c2c(c(C)c1O)CCC(C)(C(=O)O)O2 (stereo not shown) [Trolox, 6-hydroxy-2,5,7,8-tetramethylchroman-2-carboxylic acid]
Second: CC(=O)Oc1c(C)c(C)c2c(c1C)CCC(C)(CCC[C@H](C)CCC[C@H](C)CCCC(C)C)O2 (stereo partly drawn) [α-tocopherol acetate]
The “affinity of Alpha-TTP” value of the first is higher: 9% for the first, 2% for the second.

Going from Cc1cc(O)c(C)c2c1O[C@](C)(CCC[C@H](C)CCC[C@H](C)CCCC(C)C)CC2 [β-tocopherol] to Cc1c(O)cc2c(c1C)O[C@](C)(CCC[C@H](C)CCC[C@H](C)CCCC(C)C)CC2 [γ-tocopherol], the “affinity of Alpha-TTP” value falls from 38% to 9%.

System: not listed separately
Assay: DPPH assay (antioxidant activity, free radical scavenging)
Type: biochemical
Details: 5 concentrations, 0.1 mM DPPH, water:methanol 1:1, reading after 30 min at 518 nm, read-out: IC50, the point at which 50% of DPPH had been reduced
From the text: Assays that may be used to measure free radical scavenging properties include, for example, the DPPH assay and the ABTS assay. The 1,1-diphenyl-2-picryl hydrazyl (DPPH) radical is a stable free radical of purple color. Adding an antioxidant reduces the DPPH radical, which can be observed by color change (to yellow) in a spectrophotometer, for example by measuring absorbance at 518 nm. Mixing 2,2-α-azino-bis-(3-ethylbenzthiazoline-6-sulfonic acid) (ABTS) and hydrogen peroxide produces the ABTS radical (ABTS^●). Subsequent incubation with peroxidase produces the radical cation ABTS^•+. Adding an antioxidant causes an attenuation of the color change, which can be measured for example at 734 nm. The activity of an antioxidant is conventionally expressed as the concentration of an equivalent millimolar standard Trolox solution.
A stock solution of DPPH in methanol, 0.4 mM was prepared and stored in the dark at −20° C. prior to use. A test sample was diluted with water (pH=3.5 prepared by addition of acetic acid) to 1 ml. The sample was then added to the dilute DPPH stock in methanol to obtain a final sample volume of 2 ml with a 0.1 mM DPPH concentration. The water:methanol ratio was 1:1 (v/v). A blank was prepared with 1 ml of water (pH=3.5) and pure methanol. […] Absorption readings were taken after 30 min at 518 nm using a Geminys 6 spectrophotometer (Thermo Scientific, Waltham, Mass.). […]

COC(=O)C(Cc1c[nH]cn1)NC(=O)CCNC(=O)CCCCCCCCCCCC[C@]1(C)CCc2c(C)c(O)c(C)c(C)c2O1 (stereo partly drawn) [VECAR, methyl 2-(3-(13-((R)-6-hydroxy-2,5,7,8-tetramethylchroman-2-yl)tridecanamido)propanamido)-3-(1H-imidazol-4-yl)propanoate] and Cc1c(C)c2c(c(C)c1O)CC[C@@](C)(CCC[C@H](C)CCC[C@H](C)CCCC(C)C)O2 [alpha-tocopherol] are within error of each other in IC50: 24.9 ± 1.4 µM for the first, 24.4 ± 1.5 µM for the second.
